Read-outs that look alike come from different tables or passages of the source.
What was measured:
[1] = tested on: ovariectomized (OVX) rats; conditions: rat, in vivo, po, 1.5 mg/kg
[2] = tested on: osteoclast precursors (bone marrow hematopoietic cells); assay type: cell-based, SD rats; conditions: read-out: IC50 Osteoclastogenesis
platelet aggregation = platelet aggregation (Homo sapiens, UniProt P05106+P08514); assay type: cell-based
integrin αIIbβ3 = target: T1, integrin αIIbβ3 (Homo sapiens, UniProt P05106+P08514); assay type: cell-based
T1 construct: host or cells: CHO (CHO-αIIbβ3)

integrin αvβ3 = integrin αvβ3 (UniProt P05106+P06756); assay type: cell-based
integrin αvβ3, sequence (P06756 31-1048): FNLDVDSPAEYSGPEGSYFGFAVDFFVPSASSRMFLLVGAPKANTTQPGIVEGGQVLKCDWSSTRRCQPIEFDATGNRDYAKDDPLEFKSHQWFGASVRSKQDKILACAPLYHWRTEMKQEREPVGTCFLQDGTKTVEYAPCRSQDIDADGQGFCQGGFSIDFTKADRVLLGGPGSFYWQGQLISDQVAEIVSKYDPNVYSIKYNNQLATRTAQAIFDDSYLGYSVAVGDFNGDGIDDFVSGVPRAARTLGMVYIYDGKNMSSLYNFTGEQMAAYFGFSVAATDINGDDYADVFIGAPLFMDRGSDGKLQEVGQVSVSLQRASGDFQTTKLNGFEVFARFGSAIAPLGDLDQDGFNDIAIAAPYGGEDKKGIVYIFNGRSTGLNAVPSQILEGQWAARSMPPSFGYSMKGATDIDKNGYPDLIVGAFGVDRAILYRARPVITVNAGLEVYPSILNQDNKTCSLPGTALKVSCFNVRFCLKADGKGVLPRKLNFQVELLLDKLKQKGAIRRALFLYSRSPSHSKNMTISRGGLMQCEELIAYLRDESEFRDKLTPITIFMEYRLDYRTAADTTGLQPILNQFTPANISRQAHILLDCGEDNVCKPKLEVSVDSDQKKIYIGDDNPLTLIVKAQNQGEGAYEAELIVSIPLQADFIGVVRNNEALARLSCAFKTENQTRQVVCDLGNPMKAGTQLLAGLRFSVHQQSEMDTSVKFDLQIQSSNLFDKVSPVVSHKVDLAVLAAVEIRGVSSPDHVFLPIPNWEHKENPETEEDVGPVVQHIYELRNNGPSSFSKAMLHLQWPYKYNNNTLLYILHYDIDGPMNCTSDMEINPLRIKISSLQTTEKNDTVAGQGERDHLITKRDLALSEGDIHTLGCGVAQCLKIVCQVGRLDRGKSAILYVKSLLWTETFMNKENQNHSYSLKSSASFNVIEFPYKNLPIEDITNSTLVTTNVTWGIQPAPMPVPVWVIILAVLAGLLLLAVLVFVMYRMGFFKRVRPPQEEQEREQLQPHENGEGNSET
integrin αvβ3, sequence (P05106 27-788): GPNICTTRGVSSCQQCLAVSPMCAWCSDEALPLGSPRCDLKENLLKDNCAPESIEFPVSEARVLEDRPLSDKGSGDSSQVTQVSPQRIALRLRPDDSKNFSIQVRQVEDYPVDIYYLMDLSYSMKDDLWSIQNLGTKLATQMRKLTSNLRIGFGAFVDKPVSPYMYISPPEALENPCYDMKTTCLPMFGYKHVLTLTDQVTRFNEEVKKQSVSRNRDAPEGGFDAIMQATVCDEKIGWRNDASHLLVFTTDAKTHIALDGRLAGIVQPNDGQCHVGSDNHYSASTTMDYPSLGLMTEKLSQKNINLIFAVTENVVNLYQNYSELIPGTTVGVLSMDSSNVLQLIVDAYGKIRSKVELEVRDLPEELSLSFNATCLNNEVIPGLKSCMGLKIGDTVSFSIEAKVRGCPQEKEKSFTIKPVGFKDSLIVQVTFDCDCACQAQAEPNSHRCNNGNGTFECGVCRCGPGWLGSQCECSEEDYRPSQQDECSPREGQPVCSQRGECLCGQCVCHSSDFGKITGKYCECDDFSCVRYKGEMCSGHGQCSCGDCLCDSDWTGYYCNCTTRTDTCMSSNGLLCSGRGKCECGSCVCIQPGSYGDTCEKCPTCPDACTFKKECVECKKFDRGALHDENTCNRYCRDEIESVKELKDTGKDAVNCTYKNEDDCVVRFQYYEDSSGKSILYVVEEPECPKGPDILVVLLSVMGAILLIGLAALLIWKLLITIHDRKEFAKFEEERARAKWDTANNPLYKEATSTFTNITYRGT

[3] = tested on: ovariectomized (OVX) mice; design: species or system ICR mice; conditions: mouse, in vivo, po, 1.5 mg/kg
[4] = mouse, in vivo
integrin α5β1 = target: T2, integrin α5β1 (Homo sapiens, UniProt P05556+P08648); assay type: cell-based
T2 construct: Human erythroleukemia K562 cells were purchased from ATCC; host or cells: K562
T2 sequence (P08648 42-894 limits assumed): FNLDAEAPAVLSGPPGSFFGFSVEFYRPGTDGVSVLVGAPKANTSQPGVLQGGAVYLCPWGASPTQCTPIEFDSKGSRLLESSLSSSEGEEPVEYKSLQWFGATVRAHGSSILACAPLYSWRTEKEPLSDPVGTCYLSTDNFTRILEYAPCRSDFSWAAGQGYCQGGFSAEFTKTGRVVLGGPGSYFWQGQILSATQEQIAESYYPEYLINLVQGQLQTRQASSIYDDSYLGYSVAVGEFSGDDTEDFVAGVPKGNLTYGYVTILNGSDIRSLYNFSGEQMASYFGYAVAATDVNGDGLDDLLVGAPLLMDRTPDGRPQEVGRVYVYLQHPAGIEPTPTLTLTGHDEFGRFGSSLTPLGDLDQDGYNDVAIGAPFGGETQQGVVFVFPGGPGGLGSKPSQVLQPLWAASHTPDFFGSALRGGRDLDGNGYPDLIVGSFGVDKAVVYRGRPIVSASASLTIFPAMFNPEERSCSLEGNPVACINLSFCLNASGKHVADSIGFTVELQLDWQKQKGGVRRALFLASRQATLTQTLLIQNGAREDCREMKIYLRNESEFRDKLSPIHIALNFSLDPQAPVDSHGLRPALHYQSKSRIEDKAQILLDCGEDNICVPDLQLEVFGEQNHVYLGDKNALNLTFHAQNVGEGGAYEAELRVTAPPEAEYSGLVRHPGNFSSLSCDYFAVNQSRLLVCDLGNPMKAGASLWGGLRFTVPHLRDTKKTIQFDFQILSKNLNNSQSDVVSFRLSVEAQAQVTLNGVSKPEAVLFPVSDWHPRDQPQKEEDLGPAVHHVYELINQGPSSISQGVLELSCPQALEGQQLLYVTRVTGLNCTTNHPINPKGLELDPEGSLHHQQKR
T2 sequence (P08648 895-1049 partner limits assumed): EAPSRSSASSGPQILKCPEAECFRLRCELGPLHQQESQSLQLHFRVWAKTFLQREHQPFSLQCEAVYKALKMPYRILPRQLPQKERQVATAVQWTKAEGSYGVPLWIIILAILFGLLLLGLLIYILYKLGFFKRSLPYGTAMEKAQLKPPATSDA
T2 sequence (P05556 21-798): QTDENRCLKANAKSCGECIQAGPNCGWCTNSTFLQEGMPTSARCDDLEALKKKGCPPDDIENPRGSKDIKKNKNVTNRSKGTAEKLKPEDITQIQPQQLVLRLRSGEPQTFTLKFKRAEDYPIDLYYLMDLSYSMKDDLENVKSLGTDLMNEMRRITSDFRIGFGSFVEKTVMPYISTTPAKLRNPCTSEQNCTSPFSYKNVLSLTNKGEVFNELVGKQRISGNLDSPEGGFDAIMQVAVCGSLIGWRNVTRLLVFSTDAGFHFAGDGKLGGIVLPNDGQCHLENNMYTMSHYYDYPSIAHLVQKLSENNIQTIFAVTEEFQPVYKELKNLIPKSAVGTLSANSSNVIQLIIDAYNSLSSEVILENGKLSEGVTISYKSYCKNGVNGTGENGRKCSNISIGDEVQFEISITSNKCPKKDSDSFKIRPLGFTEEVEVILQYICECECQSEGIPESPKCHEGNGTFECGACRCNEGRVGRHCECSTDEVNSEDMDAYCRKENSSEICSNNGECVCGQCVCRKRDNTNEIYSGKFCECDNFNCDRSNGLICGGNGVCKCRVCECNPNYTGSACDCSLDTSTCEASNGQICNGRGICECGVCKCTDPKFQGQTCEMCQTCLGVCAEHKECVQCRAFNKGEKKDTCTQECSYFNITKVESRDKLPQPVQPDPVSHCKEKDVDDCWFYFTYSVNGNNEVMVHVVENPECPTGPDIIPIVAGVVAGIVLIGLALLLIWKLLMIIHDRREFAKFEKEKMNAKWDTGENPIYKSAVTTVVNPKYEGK

With `NCCCC(O)(P(=O)(O)O)P(=O)(O)O` [Alendronate, alendronate, reference compound] as the compound, how does the “ovariectomy-induced increase in osteoclast activity (serum C-terminal telopeptide of type-I collagen)” value [1] read?
The value was “reversed the ovariectomy-induced increase in osteoclast activity”.

For “PRGDDL: rhodostomin variant with RGD motif ^48Pro-Arg-Gly-Asp-Asp-Leu^53, SEQ ID NO: 33”, which IC50 [2] is on record?
Its IC50 is 3.15 nM.

For rhodostomin [reference compound], which IC50 (platelet aggregation) is on record?
Its IC50 is 83 nM.

What about the IC50 (integrin αIIbβ3; read-out: IC50 αIIbβ3) of the same compound?
The IC50 was 21 nM.

And the IC50 (integrin αIIbβ3; read-out: IC50 αllbβ3/Fg)?
The IC50 was 21 nM.

What about the IC50 (integrin αvβ3; read-out: IC50 αvβ3) of the same compound?
The IC50 was 13 nM.

And the IC50 (integrin αvβ3; read-out: IC50 αvβ3/Fg)?
Its IC50 is 13 nM.

And the IC50 [2]?
The IC50 was 5.52 nM.

What about the BMC [3] of the same compound?
Its BMC is 0.619 ± 0.006 g.

What about the BMD [3] of the same compound?
Its BMD is 0.090 ± 0.001 g/cm^2.

And the “C-terminal telopeptide of COL(1)α1 chain” value [3]?
The value was 397 ± 13.6 ng/mL.

And the “effect on tail bleeding (clotting) time” value [4]?
The value was “pronounced effect in prolonging the clotting time”.

Which BMC [3] does the source give for “PRLDDL: rhodostomin variant with RGD motif ^48Pro-Arg-Leu-Asp-Asp-Leu^53, SEQ ID NO: 37” here?
The BMC was 0.563 ± 0.056 g.

And the BMD [3]?
Its BMD is 0.091 ± 0.002 g/cm^2.

What about the “C-terminal telopeptide of COL(1)α1 chain” value [3] of the same compound?
Its value is 410 ± 25.1 ng/mL.

Which results are given for “RID: rhodostomin variant with RGD motif ^48Pro-Arg-Ile-Asp-Met-Pro^53, SEQ ID NO: 39”?
IC50 [2]: 5.82 nM; BMC [3]: 0.622 ± 0.004 g; BMD [3]: 0.091 ± 0.001 g/cm^2; C-terminal telopeptide of COL(1)α1 chain [3]: 391 ± 12 ng/mL

What does the source list for “PGP: rhodostomin variant having a RGD motif variant ^48PRGDGP^53, SEQ ID NO: 42”?
IC50 (platelet aggregation): 283 nM; IC50 (integrin αIIbβ3; read-out: IC50 αIIbβ3): 500 nM; IC50 (integrin αIIbβ3; read-out: IC50 αllbβ3/Fg): 2590 nM; IC50 (integrin α5β1; read-out: IC50 α5β1): 4000 nM; IC50 (integrin α5β1; read-out: IC50 α5β1/Fn): 3460 nM

For “ARGDDL: rhodostomin variant with RGD motif ^48Ala-Arg-Gly-Asp-Asp-Leu^53, SEQ ID NO: 32”, which IC50 [2] is on record?
Its IC50 is 8.02 nM.

What about the BMC [3] of the same compound?
The BMC was 0.624 ± 0.007 g.

And the BMD [3]?
Its BMD is 0.093 ± 0.001 g/cm^2.

And the “C-terminal telopeptide of COL(1)α1 chain” value [3]?
The value was 389 ± 16.4 ng/mL.

— patent US8183201B2 (priority 2006, dated 2012)
